Results: US20250144067A1, “PERSONALIZED STARVATION THERAPY FOR CANCER” (Faeth Therapeutics, Inc., priority 2021, published 2025)
Structures can show the parent of a compound that is named as a salt. Where two headings read alike, the source gives them in different places.

Columns and labels:
[1] = test system: NCI-H292 lung cancer cells; assay: FDA drug screening, complete media vs cholesterol-free media without statin (TABLE 1); type: cell-based, human
[2] = test system: NCI-H292 lung cancer cells; assay: FDA drug screening, complete media vs cholesterol-free media with simvastatin (TABLE 2); type: cell-based, human
[3] = Complete minus Cholesterol-free, >0 enhanced anti-cancer activity, about 0 neutral, <0 antagonist
[4] = NCI-H292 cells, cholesterol-free media without statin, FDA drug library screen
[5] = NCI-H292 cells, complete media, FDA drug library screen
[6] = NCI-H292 cells, FDA drug library screen, cholesterol-free media with simvastatin 0.04 μM
[7] = NCI-H292 cells, FDA drug library screen, complete media
[8] = complete media minus cholesterol-free media + simvastatin, >0 enhanced anti-cancer activity, about 0 neutral, <0 antagonist
[9] = Complete minus Cholesterol-free, greater than 0 enhanced anti-cancer activity, about 0 neutral, below 0 antagonists
[10] = NCI-H292 cells in cholesterol-free media without statin
[11] = NCI-H292 cells in complete media
[12] = NCI-H292 cells, FDA library drug in cholesterol-free media with simvastatin 0.04 μM
[13] = NCI-H292 cells, FDA library drug in complete media
[14] = complete media vs cholesterol-free media + simvastatin (0.04 μM), >0 enhanced anti-cancer activity, about 0 neutral, <0 antagonist
[15] = NCI-H292 cells, cholesterol-free media without statin
[16] = NCI-H292 cells, drug in cholesterol-free media with simvastatin 0.04 μM
[17] = NCI-H292 cells, drug in complete media
[18] = NCI-H292 cells, cholesterol-free media with simvastatin 0.04 μM, cell growth value in FDA drug screen
[19] = NCI-H292 cells, complete media, cell growth value in FDA drug screen
[20] = Complete minus Cholesterol-free, […]
[21] = complete media vs cholesterol-free media + simvastatin (0.04 μM), […]
[22] = Complete minus Cholesterol-free, greater than 0 enhanced anti-cancer activity, about 0 neutral, below 0 antagonist
[23] = NCI-H292 cells, FDA drug library screen, cholesterol-free media without statin
[24] = NCI-H292 cells, cholesterol-free media with simvastatin 0.04 μM, FDA drug library screen (TABLE 2)
[25] = NCI-H292 cells, complete media, FDA drug library screen (TABLE 2)
[26] = complete media minus cholesterol-free media + simvastatin (0.04 μM), >0 enhanced anti-cancer activity, about 0 neutral, <0 antagonist
[27] = complete vs cholesterol-free media, […]

`COc1ccc(CN2C3CC2CN(c2ccc(-c4cc(OCC(C)(C)O)cn5ncc(C#N)c45)cn2)C3)cn1` [Selpercatinib] was tested, and the Difference [1, 3] was −0.01, the Cholesterol-free [1, 4] was 0.9224 and the Complete [1, 5] was 0.9158. The “Cholesterol-free media + simvastatin (0.04 μM)” value [2, 6] was 1.485, the “Complete Media” value [2, 7] was 1.627 and the Difference [2, 8] was 0.14.

`O=C(O)CCCCCCCC(=O)O` [Azelaic acid] gave a Difference [1, 9] of −0.60, a Cholesterol-free [1, 10] of 1.702 and a Complete [1, 11] of 1.104. The “Cholesterol-free media + simvastatin (0.04 μM)” value [2, 12] was 1.245, the “Complete Media” value [2, 13] was 0.8813 and the Difference [2, 14] was −0.36.

Work on `COC(=O)N[C@H](C(=O)N1CCC[C@H]1c1nc(-c2ccc(-c3ccc(-c4c[nH]c([C@@H]5CCCN5C(=O)[C@@H](NC(=O)OC)C(C)C)n4)cc3)cc2)c[nH]1)C(C)C` [Daclatasvir] yielded a Difference [1, 3] of 0.04, a Cholesterol-free [1, 4] of 0.703 and a Complete [1, 5] of 0.7437. The “Cholesterol-free media + simvastatin (0.04 μM)” value [2, 6] was 0.9463, the “Complete Media” value [2, 7] was 1.136 and the Difference [2, 8] was 0.19.

`CC(=O)O[C@]1(C(C)=O)CC[C@H]2[C@@H]3C=C(C)C4=CC(=O)CC[C@]4(C)[C@H]3CC[C@@]21C` [Megestrol acetate] showed a Difference [1, 3] of −0.26, a Cholesterol-free [1, 15] of 1.189 and a Complete ([1]; NCI-H292 cells, complete media) of 0.9289. For the same compound, the “Cholesterol-free media + simvastatin (0.04 μM)” value [2, 12] was 1.252, the “Complete Media” value [2, 13] was 0.9647 and the Difference [2, 14] was −0.29.

Compound Leuprolide (Acetate) has a Cholesterol-free [1] of 1, a Complete [1] of 0.6877 and a Difference [1] of −0.31. The “Cholesterol-free media + simvastatin (0.04 μM)” value [2] was 1.032, the “Complete Media” value [2] was 1.087 and the Difference [2] was 0.06.

Work on `C[C@H](C(=O)O)c1cccc(C(=O)c2ccccc2)c1` [S-(+)-Ketoprofen] yielded a Cholesterol-free [1, 15] of 1.312, a Complete ([1]; NCI-H292 cells, complete media) of 0.984 and a Difference ([1]; complete vs cholesterol-free media, greater than 0 enhanced anti-cancer activity, about 0 neutral, below 0 antagonists) of −0.33. The “Cholesterol-free media + simvastatin (0.04 μM)” value [2, 16] was 0.9554, the “Complete Media” value [2, 17] was 0.7437 and the Difference [2, 14] was −0.21.

Work on `CC1(C)O[C@@H]2C[C@H]3[C@@H]4CCC5=CC(=O)C=C[C@]5(C)[C@H]4[C@@H](O)C[C@]3(C)[C@]2(C(=O)CO)O1` [Desonide] yielded a Difference [1, 3] of −0.07, a Cholesterol-free [1, 4] of 0.6524 and a Complete [1, 5] of 0.5811. For the same compound, the “Cholesterol-free media + simvastatin (0.04 μM)” value [2, 18] was 0.6303, the “Complete Media” value [2, 19] was 0.7658 and the Difference [2, 8] was 0.14.

In the case of `C=CC[C@@H]1/C=C(\C)C[C@H](C)C[C@H](OC)[C@H]2O[C@@](O)(C(=O)C(=O)N3CCCC[C@H]3C(=O)O[C@H](/C(C)=C/[C@@H]3CC[C@@H](O)[C@H](OC)C3)[C@H](C)[C@@H](O)CC1=O)[C@H](C)C[C@@H]2OC` [Tacrolimus (monohydrate)], the Difference [1, 3] is reported as −0.26, the Cholesterol-free [1, 15] is reported as 1.012 and the Complete ([1]; NCI-H292 cells, complete media) is reported as 0.7533. For the same compound, the “Cholesterol-free media + simvastatin (0.04 μM)” value [2, 18] was 1.131, the “Complete Media” value [2, 19] was 1.225 and the Difference [2, 8] was 0.09.

For `C=CC[N+]1([C@H]2C[C@H]3[C@@H]4CC[C@H]5C[C@H](OC(C)=O)[C@@H](N6CCCCC6)C[C@]5(C)[C@H]4CC[C@]3(C)[C@H]2OC(=O)CC)CCCCC1` [Rapacuronium bromide], the Difference [1, 20] was 0.04, the Cholesterol-free [1, 4] was 0.8802 and the Complete [1, 5] was 0.9158. The “Cholesterol-free media + simvastatin (0.04 μM)” value [2, 12] was 1.051, the “Complete Media” value [2, 13] was 0.7626 and the Difference [2, 21] was −0.29.

`Cc1cc(Nc2ncc(Cl)c(Nc3ccccc3S(=O)(=O)C(C)C)n2)c(OC(C)C)cc1C1CCNCC1` [Ceritinib dihydrochloride] showed a Difference [1, 3] of −0.02, a Cholesterol-free [1, 4] of 0.3644 and a Complete [1, 5] of 0.3489. The “Cholesterol-free media + simvastatin (0.04 μM)” value [2, 6] was 0.1666, the “Complete Media” value [2, 7] was 0.03677 and the Difference [2, 14] was −0.13.

`Cc1cccc(Nc2ccncc2S(=O)(=O)NC(=O)NC(C)C)c1` [Torsemide] gave a Difference [1, 22] of −0.16, a Cholesterol-free [1, 23] of 1.07 and a Complete [1, 7] of 0.914. For the same compound, the “Cholesterol-free media + simvastatin (0.04 μM)” value [2, 24] was 1.055, the “Complete Media” value [2, 25] was 0.9909 and the Difference [2, 26] was −0.06.

Compound `COc1nc(N)nc2c1ncn2[C@@H]1O[C@H](CO)[C@@H](O)[C@@H]1O` [Nelarabine] has a Difference [1, 9] of −0.59, a Cholesterol-free [1, 10] of 1.291 and a Complete [1, 11] of 0.7049. For the same compound, the “Cholesterol-free media + simvastatin (0.04 μM)” value [2, 24] was 0.8366, the “Complete Media” value [2, 25] was 0.8526 and the Difference [2, 26] was 0.02.

`CCc1c2c(nc3ccc(OC(=O)N4CCC(N5CCCCC5)CC4)cc13)-c1cc3c(c(=O)n1C2)COC(=O)[C@]3(O)CC` [Irinotecan (hydrochloride trihydrate)] showed a Difference [1, 22] of −0.10, a Cholesterol-free [1, 23] of 0.3845 and a Complete [1, 7] of 0.2808. For the same compound, the “Cholesterol-free media + simvastatin (0.04 μM)” value [2, 6] was 0.6283, the “Complete Media” value [2, 7] was 0.5165 and the Difference [2, 14] was −0.11.

For `CCCCCCOC(=O)CCC(=O)CN` [Hexaminolevulinate (hydrochloride)], the Difference [1, 3] was 0.00, the Cholesterol-free [1, 4] was 0.7384 and the Complete [1, 5] was 0.7376. For the same compound, the “Cholesterol-free media + simvastatin (0.04 μM)” value [2, 16] was 1.074, the “Complete Media” value [2, 17] was 0.8971 and the Difference [2, 14] was −0.18.

In the case of `CCOc1ccc(Cc2cc([C@]34OC[C@](CO)(O3)[C@@H](O)[C@H](O)[C@H]4O)ccc2Cl)cc1.O=C1CC[C@@H](C(=O)O)N1` [Ertugliflozin L-pyroglutamic acid], the Cholesterol-free [1, 4] is reported as 1.319, the Complete [1, 5] is reported as 1.576 and the Difference [1, 27] is reported as 0.26. For the same compound, the “Cholesterol-free media + simvastatin (0.04 μM)” value [2, 16] was 1.012, the “Complete Media” value [2, 17] was 0.8266 and the Difference [2, 21] was −0.19.

Compound `CCN1CCCC(OC(=O)C(c2ccccc2)c2ccccc2)C1` (stereo not drawn) [Piperidolate (hydrochloride)] has a Cholesterol-free ([1]; (hydrochloride)) of 0.554, a Complete ([1]; (hydrochloride)) of 1.098 and a Difference ([1]; (hydrochloride)) of 0.54. The “Cholesterol-free media + simvastatin (0.04 μM)” value ([2]; (hydrochloride)) was 0.5751, the “Complete Media” value ([2]; (hydrochloride)) was 0.901 and the Difference ([2]; (hydrochloride)) was 0.33.

Compound `CCC1=C[C@@H]2[C@H](C1)C[C@]2(CN)CC(=O)O` [Mirogabalin] has a Cholesterol-free [1, 4] of 0.5074, a Complete [1, 5] of 1.015 and a Difference [1, 27] of 0.51. The “Cholesterol-free media + simvastatin (0.04 μM)” value [2, 16] was 1.082, the “Complete Media” value [2, 17] was 0.8543 and the Difference [2, 21] was −0.23.

`O=C1CN(/N=C/c2ccc([N+](=O)[O-])o2)C(=O)N1` [Nitrofurantoin] gave a Difference [1, 22] of −0.16, a Cholesterol-free [1, 23] of 1.115 and a Complete [1, 7] of 0.9573. The “Cholesterol-free media + simvastatin (0.04 μM)” value [2, 6] was 0.848, the “Complete Media” value [2, 7] was 0.7708 and the Difference [2, 14] was −0.08.

Compound `C/C=C(/C)C(=O)O[C@H]1C(C)=C[C@]23C(=O)[C@@H](C=C(CO)[C@@H](O)[C@]12O)[C@H]1[C@@H](C[C@H]3C)C1(C)C` [Ingenol Mebutate] has a Cholesterol-free [1, 15] of 0.6991, a Complete ([1]; NCI-H292 cells, complete media) of 0.3918 and a Difference [1, 27] of −0.31. The “Cholesterol-free media + simvastatin (0.04 μM)” value ([2]; NCI-H292 cells, cholesterol-free media with simvastatin 0.04 μM, […]) was 0.2962, the “Complete Media” value ([2]; NCI-H292 cells, complete media, […]) was 0.4169 and the Difference ([2]; complete media minus cholesterol-free media + simvastatin, […]) was 0.12.

Work on `CNC(=O)CN(CCN(CCN(CC(=O)[O-])CC(=O)NC)CC(=O)[O-])CC(=O)[O-].O.[Gd+3]` [Gadodiamide (hydrate)] yielded a Difference [1, 20] of −0.65, a Cholesterol-free [1, 10] of 1.387 and a Complete [1, 11] of 0.7342. The “Cholesterol-free media + simvastatin (0.04 μM)” value [2, 6] was 1.113, the “Complete Media” value [2, 7] was 0.9905 and the Difference [2, 21] was −0.12.

`C/C(O)=C(\C#N)C(=O)Nc1ccc(C(F)(F)F)cc1` [Teriflunomide] gave a Difference [1, 22] of −0.16, a Cholesterol-free [1, 23] of 1.092 and a Complete [1, 7] of 0.9318. The “Cholesterol-free media + simvastatin (0.04 μM)” value [2, 12] was 1.712, the “Complete Media” value [2, 13] was 0.9665 and the Difference [2, 14] was −0.75.

Work on `C[C@@H]1O[C@@H]1P(=O)(O)O` [Fosfomycin (calcium)] yielded a Difference [1, 3] of −0.27, a Cholesterol-free [1, 15] of 1.27 and a Complete ([1]; NCI-H292 cells, complete media) of 1.001. The “Cholesterol-free media + simvastatin (0.04 μM)” value [2, 16] was 1.093, the “Complete Media” value [2, 17] was 0.8864 and the Difference [2, 14] was −0.21.
